# Assay results as given in ChEMBL document CHEMBL1201862, “PubChem BioAssay data set” (2004).
#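 Assay format: 96-well plates, 48-hour exposure. Abbreviation: GI50, concentration required for 50% inhibition of growth.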 Activity calls are given as the source filed them. Rule as the data show it: active = GI50 up to about 1.1 µM and inactive = higher.
# What was measured:
# Assay in all cases: NCI anticancer screen, dose series, 48 h
# 786-0 = tested on: 786-0
# A498 = tested on: A498
# A549 = tested on: A549
# ACHN = tested on: ACHN
# CAKI-1 = tested on: CAKI-1
# CCRF-CEM = tested on: CCRF-CEM
# COLO 205 = tested on: COLO 205
# DLD-1 = tested on: DLD-1
# DMS-114 = tested on: DMS-114
# EKVX = tested on: EKVX
# HCC 2998 = tested on: HCC 2998
# HCT-116 = tested on: HCT-116
# HCT-15 = tested on: HCT-15
# HL-60 = tested on: HL-60
# HOP-18 = tested on: HOP-18
# HOP-62 = tested on: HOP-62
# HOP-92 = tested on: HOP-92
# HT-29 = tested on: HT-29
# IGROV-1 = tested on: IGROV-1
# K562 = tested on: K562
# KM-20L2 = tested on: KM-20L2
# KM12 = tested on: KM12
# LOX IMVI = tested on: LOX IMVI
# LXFL 529 = tested on: LXFL 529
# M14 = tested on: M14
# M19-MEL = tested on: M19-MEL
# MOLT-4 = tested on: MOLT-4
# Malme-3M = tested on: Malme-3M
# NCI-H226 = tested on: NCI-H226
# NCI-H23 = tested on: NCI-H23
# NCI-H460 = tested on: NCI-H460
# NCI-H522 = tested on: NCI-H522
# OVCAR-3 = tested on: OVCAR-3
# OVCAR-4 = tested on: OVCAR-4
# OVCAR-5 = tested on: OVCAR-5
# OVCAR-8 = tested on: OVCAR-8
# RPMI-8226 = tested on: RPMI-8226
# RXF 393 = tested on: RXF 393
# SF-268 = tested on: SF-268
# SF-295 = tested on: SF-295
# SF-539 = tested on: SF-539
# SK-MEL-28 = tested on: SK-MEL-28
# SK-MEL-2 = tested on: SK-MEL-2
# SK-MEL-5 = tested on: SK-MEL-5
# SK-OV-3 = tested on: SK-OV-3
# SN12C = tested on: SN12C
# SNB-19 = tested on: SNB-19
# SNB-75 = tested on: SNB-75
# SNB-78 = tested on: SNB-78
# SR = tested on: SR
# TK-10 = tested on: TK-10
# U-251 = tested on: U-251
# UACC-257 = tested on: UACC-257
# UACC-62 = tested on: UACC-62
# UO-31 = tested on: UO-31
# XF498 = tested on: XF498
# DMS-273 = tested on: DMS-273
# SW-620 = tested on: SW-620
smiles,measurement,setting,value
CS/C(c1ccccc1)=[N+](\[O-])Cc1ccccc1,GI50,786-0,> 100 µM (inactive)
same,GI50,A498,> 100 µM (inactive)
same,GI50,A549,> 100 µM (inactive)
same,GI50,ACHN,> 100 µM (inactive)
same,GI50,CAKI-1,> 100 µM (inactive)
same,GI50,CCRF-CEM,39.4 µM (inactive)
same,GI50,COLO 205,> 100 µM (inactive)
same,GI50,DLD-1,> 100 µM (inactive)
same,GI50,DMS-114,45.9 µM (inactive)
same,GI50,EKVX,> 100 µM (inactive)
same,GI50,HCC 2998,> 100 µM (inactive)
same,GI50,HCT-116,> 100 µM (inactive)
same,GI50,HCT-15,16.7 µM
same,GI50,HL-60,> 100 µM (inactive)
same,GI50,HOP-18,> 100 µM (inactive)
same,GI50,HOP-62,> 100 µM (inactive)
same,GI50,HOP-92,> 100 µM (inactive)
same,GI50,HT-29,50.7 µM (inactive)
same,GI50,IGROV-1,> 100 µM (inactive)
same,GI50,K562,> 100 µM (inactive)
same,GI50,KM-20L2,> 100 µM (inactive)
same,GI50,KM12,> 100 µM (inactive)
same,GI50,LOX IMVI,16.4 µM (inactive)
same,GI50,LXFL 529,> 100 µM (inactive)
same,GI50,M14,> 100 µM (inactive)
same,GI50,M19-MEL,> 100 µM (inactive)
same,GI50,MOLT-4,> 100 µM (inactive)
same,GI50,Malme-3M,> 100 µM (inactive)
same,GI50,NCI-H226,> 100 µM (inactive)
same,GI50,NCI-H23,> 100 µM (inactive)
same,GI50,NCI-H460,33.6 µM (inactive)
same,GI50,NCI-H522,90.2 µM (inactive)
same,GI50,OVCAR-3,> 100 µM (inactive)
same,GI50,OVCAR-4,> 100 µM (inactive)
same,GI50,OVCAR-5,> 100 µM (inactive)
same,GI50,OVCAR-8,> 100 µM (inactive)
same,GI50,RPMI-8226,27.1 µM (inactive)
same,GI50,RXF 393,> 100 µM (inactive)
same,GI50,SF-268,> 100 µM (inactive)
same,GI50,SF-295,> 100 µM (inactive)
same,GI50,SF-539,> 100 µM (inactive)
same,GI50,SK-MEL-28,> 100 µM (inactive)
same,GI50,SK-MEL-2,> 100 µM (inactive)
same,GI50,SK-MEL-5,> 100 µM (inactive)
same,GI50,SK-OV-3,> 100 µM (inactive)
same,GI50,SN12C,> 100 µM (inactive)
same,GI50,SNB-19,> 100 µM (inactive)
same,GI50,SNB-75,> 100 µM (inactive)
same,GI50,SNB-78,> 100 µM (inactive)
same,GI50,SR,20 µM (inactive)
same,GI50,TK-10,> 100 µM (inactive)
same,GI50,U-251,> 100 µM (inactive)
same,GI50,UACC-257,> 100 µM (inactive)
same,GI50,UACC-62,> 100 µM (inactive)
same,GI50,UO-31,> 100 µM (inactive)
same,GI50,XF498,> 100 µM (inactive)
[O-][S+](Cc1ccccn1)c1nc2ccccc2nc1-c1ccccc1 (centres undefined),GI50,786-0,47.2 µM (inactive)
same,GI50,A549,47.2 µM (inactive)
same,GI50,ACHN,48.1 µM (inactive)
same,GI50,CCRF-CEM,38.6 µM (inactive)
same,GI50,COLO 205,18.8 µM (inactive)
same,GI50,DMS-114,28.2 µM (inactive)
same,GI50,DMS-273,26.1 µM (inactive)
same,GI50,EKVX,30.7 µM (inactive)
same,GI50,HCT-116,33.4 µM (inactive)
same,GI50,HL-60,20.8 µM (inactive)
same,GI50,HOP-18,80.4 µM (inactive)
same,GI50,HOP-92,28.3 µM (inactive)
same,GI50,HT-29,44.4 µM (inactive)
same,GI50,IGROV-1,36 µM (inactive)
same,GI50,K562,31.3 µM (inactive)
same,GI50,LXFL 529,31.9 µM (inactive)
same,GI50,M14,36 µM (inactive)
same,GI50,MOLT-4,38.3 µM (inactive)
same,GI50,Malme-3M,33.1 µM (inactive)
same,GI50,NCI-H226,18.9 µM (inactive)
same,GI50,NCI-H23,34.8 µM (inactive)
same,GI50,OVCAR-3,44.9 µM (inactive)
same,GI50,OVCAR-4,26.9 µM (inactive)
same,GI50,OVCAR-8,26.5 µM (inactive)
same,GI50,RPMI-8226,19.9 µM (inactive)
same,GI50,SF-268,66.1 µM (inactive)
same,GI50,SF-295,27.9 µM (inactive)
same,GI50,SK-MEL-28,53.8 µM (inactive)
same,GI50,SK-OV-3,55.7 µM (inactive)
same,GI50,SN12C,35.3 µM (inactive)
same,GI50,SNB-19,62.4 µM (inactive)
same,GI50,SNB-75,26.3 µM (inactive)
same,GI50,SNB-78,21.2 µM (inactive)
same,GI50,U-251,41.5 µM (inactive)
same,GI50,UACC-257,33.1 µM (inactive)
same,GI50,UO-31,37.7 µM (inactive)
same,GI50,XF498,17.5 µM (inactive)
[O-][S+](Cc1cnc2ccccc2c1)c1nc2ccccc2nc1-c1cccs1 (centres undefined),GI50,786-0,13.2 µM (inactive)
same,GI50,A549,19.7 µM (inactive)
same,GI50,ACHN,13.6 µM (inactive)
same,GI50,CCRF-CEM,5.08 µM (inactive)
same,GI50,COLO 205,19.5 µM (inactive)
same,GI50,DMS-114,10.5 µM (inactive)
same,GI50,DMS-273,13.7 µM (inactive)
same,GI50,EKVX,6.31 µM (inactive)
same,GI50,HCT-116,10.6 µM (inactive)
same,GI50,HL-60,4.31 µM (inactive)
same,GI50,HOP-18,17.5 µM (inactive)
same,GI50,HOP-92,11.2 µM (inactive)
same,GI50,HT-29,16.6 µM (inactive)
same,GI50,IGROV-1,16.8 µM (inactive)
same,GI50,K562,7.46 µM (inactive)
same,GI50,LXFL 529,8.55 µM (inactive)
same,GI50,M14,15.1 µM (inactive)
same,GI50,MOLT-4,4.94 µM (inactive)
same,GI50,Malme-3M,19.2 µM (inactive)
same,GI50,NCI-H226,0.43 µM (active)
same,GI50,NCI-H23,14.9 µM (inactive)
same,GI50,OVCAR-3,19.7 µM (inactive)
same,GI50,OVCAR-4,10.5 µM (inactive)
same,GI50,OVCAR-5,13.5 µM (inactive)
same,GI50,OVCAR-8,17.5 µM (inactive)
same,GI50,RPMI-8226,25.4 µM (inactive)
same,GI50,SF-268,16.1 µM (inactive)
same,GI50,SF-295,25.5 µM (inactive)
same,GI50,SF-539,17.9 µM (inactive)
same,GI50,SK-MEL-28,16.9 µM (inactive)
same,GI50,SK-OV-3,29.2 µM (inactive)
same,GI50,SN12C,14.5 µM (inactive)
same,GI50,SNB-19,22.4 µM (inactive)
same,GI50,SNB-75,19.1 µM (inactive)
same,GI50,SNB-78,20.3 µM (inactive)
same,GI50,U-251,18.7 µM (inactive)
same,GI50,UACC-257,16 µM (inactive)
same,GI50,UO-31,14.8 µM (inactive)
same,GI50,XF498,4.06 µM (inactive)
COc1ccc([C@H]2[C@@H]3CCc4ccccc4C3=NN2C(N)=S)cc1OC,GI50,786-0,54.2 µM (inactive)
same,GI50,A498,> 100 µM (inactive)
same,GI50,A549,41.9 µM (inactive)
same,GI50,ACHN,32.7 µM (inactive)
same,GI50,CCRF-CEM,32.4 µM (inactive)
same,GI50,DLD-1,53 µM (inactive)
same,GI50,DMS-114,28.8 µM (inactive)
same,GI50,EKVX,40.1 µM (inactive)
same,GI50,HCC 2998,> 100 µM (inactive)
same,GI50,HCT-116,47.9 µM (inactive)
same,GI50,HCT-15,40.9 µM
same,GI50,HL-60,22.9 µM (inactive)
same,GI50,HOP-18,> 100 µM (inactive)
same,GI50,HOP-62,97.7 µM (inactive)
same,GI50,HOP-92,35.4 µM (inactive)
same,GI50,HT-29,40 µM (inactive)
same,GI50,IGROV-1,69.3 µM (inactive)
same,GI50,K562,22.4 µM (inactive)
same,GI50,KM-20L2,57.7 µM (inactive)
same,GI50,KM12,47.9 µM (inactive)
same,GI50,LOX IMVI,32.6 µM (inactive)
same,GI50,LXFL 529,24.2 µM (inactive)
same,GI50,M14,67.1 µM (inactive)
same,GI50,M19-MEL,34.3 µM (inactive)
same,GI50,MOLT-4,31.1 µM (inactive)
same,GI50,Malme-3M,85.3 µM (inactive)
same,GI50,NCI-H226,45.6 µM (inactive)
same,GI50,NCI-H23,34.6 µM (inactive)
same,GI50,NCI-H460,44.1 µM (inactive)
same,GI50,NCI-H522,15.9 µM (inactive)
same,GI50,OVCAR-3,51.4 µM (inactive)
same,GI50,OVCAR-4,41.4 µM (inactive)
same,GI50,OVCAR-5,> 100 µM (inactive)
same,GI50,OVCAR-8,74.3 µM (inactive)
same,GI50,RPMI-8226,37.9 µM (inactive)
same,GI50,RXF 393,39.7 µM (inactive)
same,GI50,SF-268,85.9 µM (inactive)
same,GI50,SF-539,> 100 µM (inactive)
same,GI50,SK-MEL-28,78 µM (inactive)
same,GI50,SK-MEL-2,50 µM (inactive)
same,GI50,SK-OV-3,> 100 µM (inactive)
same,GI50,SN12C,> 100 µM (inactive)
same,GI50,SNB-19,77.3 µM (inactive)
same,GI50,SNB-78,> 100 µM (inactive)
same,GI50,SR,27 µM (inactive)
same,GI50,SW-620,58.2 µM (inactive)
same,GI50,TK-10,> 100 µM (inactive)
same,GI50,U-251,60.3 µM (inactive)
same,GI50,UACC-257,45.5 µM (inactive)
same,GI50,UACC-62,34 µM (inactive)
same,GI50,UO-31,36.1 µM (inactive)
same,GI50,XF498,> 100 µM (inactive)
